The record followed here is article PMC12490239, “Combining BET inhibition with SMAC mimetics restricts tumor growth and triggers immune surveillance in preclinical cancer models” (Cell Reports Medicine, 2025).

What all share (assay): cells
What all share (design): CellTiter-Glo 2.0 luminescence proliferation/viability assay, single agents, human tumour cell line panel
On the technique in general: Cellular ATP, detected with luciferase, serves as a proxy for viable cell number.

One test relates to COCM1. The note with it: CoCM-1, 96 h; single agent; read-out: IC50 SMACm. The essentials: (§1)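 Human tumour cell lines were seeded into assay plates and held at 37°C with 5% CO2 for twenty-four hours, then exposed in triplicate to rising concentrations of the SMAC mimetic, from 4.5 nM to 10 μM, with DMSO as control. After 96 h, viability was read as CellTiter-Glo2.0 luminescence to derive single-agent IC50 values.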

The next test relates to COLO-205. The note with it: Homo sapiens, COLO 205, 96 h; single agent; read-out: IC50 SMACm. An outline of the steps:
as §1

For the next test, the system named is COLO678. To be noted: Homo sapiens, COLO-678, 96 h; single agent; read-out: IC50 SMACm. The essentials: as §1
In a further test the test system is GSU. To be noted: 96 h; single agent; read-out: IC50 SMACm. The essentials: as §1
The test system of another test is HCT-116. The note with it: Homo sapiens, HCT-116, 96 h; single agent; read-out: IC50 SMACm. An outline of the steps: as §1
Another test deals with HCT-15. To be noted: Homo sapiens, HCT-15, 96 h; single agent; read-out: IC50 SMACm. An outline of the steps:
as §1

The test system of a further test is HT-29. The note with it: Homo sapiens, HT-29, 96 h; single agent; read-out: IC50 SMACm. The essentials: as §1
The subject of the next test is LIM2550. The note with it: 96 h; single agent; read-out: IC50 SMACm. An outline of the steps:
as §1

The test system of the next test is LS-411N. To be noted: Homo sapiens, LS-411N, 96 h; single agent; read-out: IC50 SMACm. An outline of the steps: as §1
The next test deals with NCI-H1838. To be noted: Homo sapiens, NCI-H1838, 96 h; single agent; read-out: IC50 SMACm. The essentials: as §1
The next test relates to NCI-H747. To be noted: Homo sapiens, NCI-H747, 96 h; single agent; read-out: IC50 SMACm. An outline of the steps:
as §1

A further test concerns SNU-16. The note with it: Homo sapiens, SNU-16, 96 h; single agent; read-out: IC50 SMACm. The essentials: as §1
The next test relates to SNU1040. The note with it: 96 h; single agent; read-out: IC50 SMACm. An outline of the steps:
as §1

The test system of the next test is SNU1047. To be noted: 96 h; single agent; read-out: IC50 SMACm. An outline of the steps:
as §1

A further test concerns T84. To be noted: Homo sapiens, T84, 96 h; single agent; read-out: IC50 SMACm. The essentials:
as §1

Broadly, the IC50 is the point on the concentration scale where inhibition reaches its midpoint. In the case of `CN[C@@H](C)C(=O)Nc1ccc(-c2c(-c3cccnc3OC)nc3cc(C)ccn23)c(C#Cc2ccc3c(C)nccc3c2)n1` [SMACm, BI 891065], the concentration for half-maximal inhibition (IC50) was 7.58 µM with COCM1; 4.99 µM with COLO-205; 2.59 µM in the test on COLO678; 5.68 µM with GSU; 4.06 µM in the test with HCT-116; 2.82 µM with HCT-15. The IC50 with HT-29 was determined as 4.24 µM; with LIM2550, 2.08 µM; in the test on LS-411N it was 4.43 µM; with NCI-H1838 it was 4.25 µM; with NCI-H747, 5.06 µM; with SNU-16 it was 4.32 µM. Besides, the IC50 is 3.59 µM with SNU1040, 2.79 µM in the test with SNU1047 and 4.44 µM in the test on T84.
